These results are taken from US9234231B2, “Screening tool for anti-inflammatory drug discovery comprising the FPR2/ALX gene promoter” (Università degli Studi “G. D'Annunzio” Chieti-Pescara, priority 2011, dated 2016).

What all share (format): cell-based, human
Assay [1] relates to FPR2/ALX promoter. In words: Luciferase reporter gene assay of FPR2/ALX promoter constructs P-1500 and P-346 in MDA-MB231 cells. The settings on record: MDA-MB231 cells transfected 24 h, then exposed 24 h; LXA4 10 nM, dexametasone 1 μM, IFN-γ 5-100 nM, LPS 500 nM; vs vehicle. The method, then:
Left panel. MDA-MB231 cells were transfected with P-1500 or P-346. Twenty four hours post-transfection, cells were exposed to ethanol vehicle or 10 nM LXA4 for additional 24 h. Bars depict mean±S.D. of n=4 carried out with duplicates. *, P=0.018; **, P=0.0076 vs vehicle-treated cells. Right panel. MDA-MB231 cells were exposed to LXA4 (10 nM) for the indicated time. FPR2/ALX mRNA was quantitated by real-time PCR. Bars show mean±S.D. of n=3. *, P=0.05.
Having localized the TSS, a 1500 bp fragment of human genomic DNA (−1449/+51 from the TSS) was amplified by PCR, cloned into the promoterless pGL3 vector containing the luciferase reporter gene. For this purpose, Genomic DNA was extracted from the THP1 cells using the Wizard Genomic DNA Purification Kit (Promega, Milan, Italy). Two primers, (For 1500 bp e Rev 1500 bp, Table 1) were designed on the basis of genomic DNA sequence of 5′-flanking region of the FPR2/ALX gene to amplify a section of DNA starting −1449 bp upstream of the identified transcription start site (+1). In addition to the template (100 ng of genomic DNA) and primers For 1500 bp and Rev 1500 bp (100 ng), the reaction mixture contained 0.2 mM dNTPs, Pfu DNA polymerase buffer and 0.05 units of Jumpstart Taq DNA polymerase (Sigma-Aldrich), PCR consisted of 35 cycles of amplification (30 seconds at 94° C., 30 s at 52° C., and 120 seconds at 72° C.). PCR products were recovered from low melting agarose gel and used as template in PCR reactions using primers For 1500 and Rev 1500, added of Kpn I and Xho I restriction sites, respectively (Table 1). PCR products were resolved by 1.5% agarose gel elecrophoresis, purified and ligated into the pGL3-basic reporter vector, which was previously digested with Kpn I and Xho I restriction endonuclease. […] The promoter activity of the construct was analyzed by transfection into MCF7 and MDA-MB231 cells. […] A slightly higher activity was detected in MDA-MB231 cells (18 fold over empty vector) compared to MCF7 cells (14 fold over empty vector). […]
On the technique in general: Reporter assays use an easily measured gene product as a stand-in for the process of interest.

Assay [2] deals with FPR2/ALX mRNA. Briefly: FPR2/ALX mRNA expression by real time PCR in MDA-MB231 cells. (In general: Quantitative PCR measures a nucleic acid by following its amplification.)
Assay [3] has as its system FPR2/ALX protein. Briefly: FPR2/ALX protein expression by flow cytometry in MDA-MB231 cells. The note with it: 10 μM 5-aza-dC, 72 h, Δ MFI vs untreated cells. (In general: Flow cytometry measures light scatter and fluorescence of single cells or particles in a stream.)

As to `CCCCCC(O)/C=C/C=C\C=C\C=C\C(O)C(O)CCCC(=O)O` (stereo not drawn) [LXA4, 5,6,155-trihydroxy-7,9,11,13-trans-1′-cis-eicosatetraenoic acid], the “luciferase activity of P-1500 and P-346” value in assay [1] is recorded as “significantly enhanced”. For the same molecule, in assay [2] (MDA-MB231 cells exposed to LXA4 10 nM, real-time PCR), the “FPR2/ALX mRNA levels” value is on record as “enhanced”.

As to `Nc1ncn([C@H]2C[C@H](O)[C@@H](CO)O2)c(=O)n1` [5-aza-dC, 5-aza-2′-deoxycytidine], the “increase in FPR2/ALX protein expression” value in assay [3] is listed as around 3 fold. Besides, the “increase in FPR2/ALX mRNA expression” value in assay [2] (MDA-MB231 cells, 10 μM 5-aza-dC, 72 h, vs untreated cells) is recorded as around 10 fold.

Regarding `C[C@@H]1C[C@H]2[C@@H]3CCC4=CC(=O)C=C[C@]4(C)[C@@]3(F)[C@@H](O)C[C@]2(C)[C@@]1(O)C(=O)CO` [dexametasone], in assay [1], the “luciferase activity of P-1500 and P-346” value was “did not give appreciable changes”.

In the case of IFN-γ: gamma interferon, cytokine, the “luciferase activity of P-1500 and P-346” value in assay [1] is reported as “did not give appreciable changes”.
